Source: patent US20210219550A1, “PEST CONTROL COMPOSITIONS AND USES THEREOF” (Flagship Pioneering Innovations VI, LLC, priority 2018, published 2021)

What was measured:
[1] = test system: E. coli; test: Treatment of bacteria and yeast with DOX-loaded grapefruit PMPs (kinetic OD600, relative OD); details: effective DOX 5-100 μM
Protocol: (§1) Bacteria and yeast strains were maintained as indicated by the supplier: E. coli(ATCC, #25922) was grown on Trypticase Soy Agar/broth at 37° C., Pseudomonas aeruginosa (ATCC) was grown on Tryptic soy Agar/broth with […] rifampicin at 37° C., Pseudomonas syringae pv. tomato str. DC3000 bacteria (ATCC, #BAA-871) was grown on King's Medium B agar with […] rifampicin at 30° C., and Saccharomyces cerevisiae (ATCC, #9763) was grown on yeast extract peptone dextrose broth (YPD) and maintained at 30° C. Prior to treatment, fresh one day cultures were grown overnight, the OD (600 nm) was adjusted to 0.1 OD with medium prior to use, and bacteria/yeast were transferred to a 96 well plate for treatment (duplicate samples, 100 μl/well). […] Plates were covered with aluminum foil, and incubated at 37° C. (E. coli, P. aeruginosa), or 30° C. (S. cerevisiae, P. syringae) and agitated at 220 rpm.
(§2) A kinetic Absorbance measurement at 600 nm was performed on a SpectraMax® spectrophotometer to monitor the OD of the cultures at t=0 h, t=1 h, t=2 h, t=3 h, t=4.5 h, t=16 h (E. coli, P. aeruginosa) or t=0.5 h, t=1.5 h, t=2.5 h, t=3.5 h, t=4 h, t=16 h (P. syringae, S. cerevisiae).
(§3) To compare the cytotoxic effect of PMP-DOX treatment on different bacterial and yeast strains, within each treatment group the relative OD was determined as compared to the untreated control (set to 100%).

[2] = test system: Pseudomonas aeruginosa; test: as above; details: P. aeruginosa, effective DOX 5-100 μM
Protocol: as §1, §2, §3

[3] = test system: Pseudomonas syringae pv. tomato str. DC3000; test: as above; details: P. syringae, effective DOX 5-100 μM
Protocol: as §1, §2, §3

[4] = test system: Saccharomyces cerevisiae; test: as above; details: S. cerevisiae, effective DOX 5-100 μM
Protocol: as §1, §2, §3

[5] = test system: Arabidopsis thaliana seedlings; test: Treatment of Arabidopsis thaliana seedlings with doxorubicin-loaded PMPs (cytotoxicity: leaf vigor, leaf color, root length); assay type: in vivo; details: 7-day old seedlings, 24 hours treatment, 3 further days; doses tested 25, 50, 100 μM
Protocol: Wild type Arabidopsis thaliana Col-0 seeds were obtained from the ABRC, surface sterilized with 50% bleach, stratified for 1-3 d at 4° C., and germinated on half-strength (0.5×) Murashige and Skoog (MS) medium supplemented with 0.5% sucrose, 2.5 mM MES, pH 5.6, containing 0.8% agar, with a photoperiod of 16 h light 23° C./8 h dark 21° C.
To test whether PMPs can deliver a small molecule cargo in planta, 7-day old Arabidopsis thaliana seedlings were transferred to 0.5× liquid MS medium in a 24 well plate (1 seedling per well), and treated with free DOX or DOX-loaded PMPs with an encapsulated DOX dose of 0 (negative control), 25 μM, 50 μM and 100 μM. The plate was covered with aluminum foil and incubated for 24 hours. DOX-containing medium was removed, the seedlings were washed two times with ½X MS medium, and fresh medium was added. Seedlings were incubated for an additional 3 days under a normal photoperiod (16 h light 23° C./8 h dark 21° C.). Next, seedlings were removed from the plate and towel-dried for imaging and cytotoxicity was assessed by analyzing leaf vigor, leaf color and root length. Cytotoxicity is defined by shortening of the roots, loss of leaf vigor, and leaf discoloration (yellow instead of green) when compared to an untreated seedling control.

COc1cccc2c1C(=O)c1c(O)c3c(c(O)c1C2=O)C[C@@](O)(C(=O)CO)C[C@@H]3O[C@H]1C[C@H](N)[C@H](O)[C@H](C)O1 [free doxorubicin, doxorubicin]
cytotoxic effect (relative OD vs untreated control), in words [1]: cytotoxicity is induced earlier than with PMP-DOX delivery | cytotoxic effect (relative OD vs untreated control), in words [2]: cytotoxicity is induced earlier than with PMP-DOX delivery | cytotoxic effect (relative OD vs untreated control), in words [3]: cytotoxicity is induced earlier than with PMP-DOX delivery | cytotoxic effect (relative OD vs untreated control), in words [4]: cytotoxicity is induced earlier than with PMP-DOX delivery | DOX dose at which cytotoxicity was shown [5]: 100 µM
